Ciliation defects data for one molecule are collected here from US20230218577A1, “USE OF HEAT SHOCK PROTEIN INHIBITORS FOR THE TREATMENT OF NEURODEVELOPMENTAL DISORDERS” (The Children's Medical Center Corporation, priority 2020, published 2023).

Molecules are shown by their SMILES.

In the assay the test system is ciliated neurons in cortex and dentate gyrus of Tsc1 mutant mice. The experiment in a line: Ciliated neurons in brain of Tsc1 mutant mice (immunohistochemistry, manual cilia counting). Format: in vivo, mouse. The settings on record: rapamycin 6 mg/kg i.p. every other day P7 until P21. From the text:
Neuronal cilia in TSC mouse models was examined with either a conditional deletion of TSC1 or TSC2 driven by the Synapsin-1 promoter, which results in loss of TSC1/2 proteins in post-mitotic neurons of the cortex and of the hippocampus. The TSC1/SynCre mice (Tsc1 mutant) have a shorter life span (median age postnatal day 35, P35), and they recapitulate many of the neurological manifestations of TSC, including seizures and presence of ectopic giant cells (Meikle et al., A mouse model of tuberous sclerosis: neuronal loss of Tsc1 causes dysplastic and ectopic neurons, reduced myelination, seizure activity, and limited survival; J Neurosci 27, 5546-5558 (2007)). […]
For histological analysis, animals were anesthetized (1 ml of 2.5% Avertin) and perfused transcardially with 4% PFA. […] Finally, the average percentage of neurons with cilia (NeuN^+/ACIII^+) was calculated in each of the images. […] The average percentage of SMI311^+ or SMI311^− with cilia was calculated. […] A threshold for cilia count was set such that only ACIII positive objects that measured longer than 1 μm were counted as cilia. All the imaging and the quantification were done in a blinded way. […]

In the case of `CO[C@H]1C[C@@H]2CC[C@@H](C)[C@@](O)(O2)C(=O)C(=O)N2CCCC[C@H]2C(=O)O[C@H]([C@H](C)C[C@@H]2CC[C@@H](O)[C@H](OC)C2)CC(=O)[C@H](C)/C=C(\C)[C@@H](O)[C@@H](OC)C(=O)[C@H](C)C[C@H](C)/C=C/C=C/C=C/1C` [rapamycin], the ciliation defects entry was “prevented”.
